Source: patent publication US10604528B2, “Galunisertib crystalline form, preparation method thereof and use thereof” (Crystal Pharmaceutical (Suzhou) Co., Ltd., priority 2016, dated 2020)
Values after ≈ are worked out from the molar mass of the structure shown. “Also recorded” adds a separate entry of the source. Like-named read-outs stand apart in the source and are kept apart here.

Assays:
Assay type in all cases: physicochemical
[1] = Hygroscopicity by dynamic vapor sorption (DVS); settings: for Hygroscopicity class / Weight gain at 80% RH: 80% RH; for Hygroscopicity class: Chinese Pharmacopoeia 2015 definition; for Weight gain at 80% RH / Weight gain at 95% RH: DVS
Description: Dynamic vapor sorption (DVS) was applied to test hygroscopicity of Form A and Form 1 disclosed in WO2007018818A1 with about 10 mg of samples.
Description and definition of hygroscopicity (Chinese Pharmacopoeia 2015 edition, 9103 General drug hygroscopic test guidelines, test at 25° C.±1° C., 80% RH).

[2] = Kinetic solubility in FaSSIF, FeSSIF and water (HPLC)
Description: Form A of the present disclosure and Form 1 of the prior art were suspended into FaSSIF (Fasted state simulated intestinal fluids, pH=6.5), FeSSIF (Fed state simulated intestinal fluids, pH=5.0), SGF (Simulated gastric fluids, pH=1.8) and water to get saturated solutions. After equilibrated for 1 h, 4 h and 24 h, concentrations of the saturated solutions were measured by HPLC.

[3] = Particle size distribution (laser particle size analyzer, wet process)
Description: The particle size distribution test in the present disclosure is acquired by the S3500 laser particle size analyzer of Microtrac. Microtrac S3500 is equipped with the SDC (Sample Delivery Controller). The test is carried out by wet process, and the dispersion medium is Isopar G. The parameters are as follow: […]

[4] = Long-term and accelerated solid-state stability (XRPD)
Description: Solid samples of Form A and Form 1 were stored under different conditions of 25° C./60% RH, 40° C./75% RH. 60° C./75% RH and 80° C.

[5] = Mechanical stability (manual grinding, XRPD); settings: ground manually for 5 minutes in mortar
Description: Solid sample of Form A of the present disclosure was ground manually for 5 minutes in mortar. The XRPD pattern overlay of the solids before and after grinding is substantially as depicted in FIG. 9 (top: XRPD pattern before grinding, bottom: XRPD pattern after grinding).

For Cc1cccc(-c2nn3c(c2-c2ccnc4ccc(C(N)=O)cc24)CCC3)n1 [Form 1, 2-(6-methyl-pyridin-2-yl)-3-[6-amido-quinolin-4-yl)-5,6-dihydro-4H-pyrrolo[1,2-b]pyrazole, reference compound], the Hygroscopicity class [1] was “slightly hygroscopic”, the “Weight gain at 80% RH” value [1] was 0.33% and the “Weight gain at 95% RH” value [1] was 0.53%. For the same compound, the solubility ([2]; FaSSIF and water, pH 6.5, fassif, thermodynamic from solid, in both FaSSIF and H2O, all sampling points, read-out: solubility) was < 60 µg/mL, the solubility ([2]; FaSSIF pH=6.5, 1 h) was 58 µg/mL (≈ 157 µM) and the solubility ([2]; FaSSIF pH=6.5, 4 h) was 51 µg/mL (≈ 138 µM). The solubility ([2]; FaSSIF pH=6.5, 24 h) was 52 µg/mL (≈ 141 µM), the solubility ([2]; FeSSIF pH=5.0, 1 h) was 120 µg/mL (≈ 325 µM) and the solubility ([2]; FeSSIF pH=5.0, 4 h) was 110 µg/mL (≈ 298 µM). It also gave a solubility ([2]; FeSSIF pH=5.0, 24 h) of 120 µg/mL (≈ 325 µM), a solubility ([2]; H2O, 1 h) of 56 µg/mL (≈ 152 µM) and a solubility ([2]; H2O, 4 h) of 55 µg/mL (≈ 149 µM). For the same compound, the solubility ([2]; H2O, 24 h) was 55 µg/mL (≈ 149 µM), the D10 ([3]; ultrasonication time 0 s) was 33.41 μm and the D50 ([3]; ultrasonication time 0 s) was 56.97 μm. For the same compound, the D90 ([3]; ultrasonication time 0 s) was 95.11 μm, the “MV (average particle size calculated by volume)” value ([3]; ultrasonication time 0 s) was 62.25 μm and the D10 ([3]; ultrasonication time 30 s) was 24.89 μm. The D50 ([3]; ultrasonication time 30 s) was 42.56 μm, the D90 ([3]; ultrasonication time 30 s) was 68.40 μm and the “MV (average particle size calculated by volume)” value ([3]; ultrasonication time 30 s) was 45.75 μm. For the same compound, the D10 ([3]; ultrasonication time 60 s) was 22.40 μm, the D50 ([3]; ultrasonication time 60 s) was 37.88 μm and the D90 ([3]; ultrasonication time 60 s) was 59.87 μm. For the same compound, the “MV (average particle size calculated by volume)” value ([3]; ultrasonication time 60 s) was 40.41 μm, the D10 ([3]; ultrasonication time 90 s) was 20.94 μm and the D50 ([3]; ultrasonication time 90 s) was 35.58 μm. The D90 ([3]; ultrasonication time 90 s) was 55.95 μm, the “MV (average particle size calculated by volume)” value ([3]; ultrasonication time 90 s) was 37.83 μm and the “Solid form after storage” value ([4]; 25° C./60% RH, 12 months) was “Form 1”. The “Solid form after storage” value ([4]; 40° C./75% RH, 12 months) was “Form 1”, the “Solid form after storage” value ([4]; 60° C./75% RH, 2 weeks) was “Form 1” and the “Solid form after storage” value ([4]; 80° C., 2 weeks) was “partially converts to Form A; also recorded: Form 1 + Form A”.

With Cc1cccc(-c2nn3c(c2-c2ccnc4ccc(C(N)=O)cc24)CCC3)n1 [Form A, 2-(6-methyl-pyridin-2-yl)-3-[6-amido-quinolin-4-yl)-5,6-dihydro-4H-pyrrolo[1,2-b]pyrazole] the “Crystalline form (XRPD pattern) after grinding” value [5] was “doesn't change significantly; also recorded: No form change”, the Hygroscopicity class [1] was “non-hygroscopic or almost non-hygroscopic” and the “Weight gain at 80% RH” value [1] was 0.15%. For the same compound, the “Weight gain at 95% RH” value [1] was 0.23%, the “Solid Form after DVS test” value ([1]; XRPD after DVS test) was “does not change after DVS test; also recorded: Form A (no change)” and the solubility ([2]; FaSSIF pH=6.5, 1 h) was 230 µg/mL (≈ 623 µM). The solubility ([2]; FaSSIF pH=6.5, 4 h) was 270 µg/mL (≈ 731 µM), the solubility ([2]; FaSSIF pH=6.5, 24 h) was 520 µg/mL (≈ 1410 µM) and the “solubility relative to Form 1” value ([2]; FaSSIF pH=6.5, 24 h) was “ten times higher than that of Form 1”. The solubility ([2]; FeSSIF pH=5.0, 1 h) was 480 µg/mL (≈ 1300 µM), the solubility ([2]; FeSSIF pH=5.0, 4 h) was 820 µg/mL (≈ 2220 µM) and the solubility ([2]; FeSSIF pH=5.0, 24 h) was 640 µg/mL (≈ 1730 µM). The solubility ([2]; H2O, 1 h) was 170 µg/mL (≈ 460 µM), the solubility ([2]; H2O, 4 h) was 250 µg/mL (≈ 677 µM) and the solubility ([2]; H2O, 24 h) was 310 µg/mL (≈ 839 µM). For the same compound, the D10 ([3]; ultrasonication time 0 s) was 50.28 μm, the D50 ([3]; ultrasonication time 0 s) was 170.3 μm and the D90 ([3]; ultrasonication time 0 s) was 356.4 μm. For the same compound, the “MV (average particle size calculated by volume)” value ([3]; ultrasonication time 0 s) was 190.8 μm, the D10 ([3]; ultrasonication time 30 s) was 34.37 μm and the D50 ([3]; ultrasonication time 30 s) was 106.2 μm. For the same compound, the D90 ([3]; ultrasonication time 30 s) was 210.5 μm, the “MV (average particle size calculated by volume)” value ([3]; ultrasonication time 30 s) was 116.1 μm and the D10 ([3]; ultrasonication time 60 s) was 29.37 μm. The D50 ([3]; ultrasonication time 60 s) was 92.81 μm, the D90 ([3]; ultrasonication time 60 s) was 192.2 μm and the “MV (average particle size calculated by volume)” value ([3]; ultrasonication time 60 s) was 104.1 μm. It also gave a D10 ([3]; ultrasonication time 90 s) of 26.40 μm, a D50 ([3]; ultrasonication time 90 s) of 83.69 μm and a D90 ([3]; ultrasonication time 90 s) of 167.2 μm. The “MV (average particle size calculated by volume)” value ([3]; ultrasonication time 90 s) was 91.94 μm, the “Time the form keeps stable” value ([4]; 25° C./60% RH and 40° C./75% RH) was “at least 12 months” and the “Solid form after storage” value ([4]; 25° C./60% RH, 12 months) was “Form A”. The “Solid form after storage” value ([4]; 40° C./75% RH, 12 months) was “No form change; also recorded: Form A”, the “Time the form keeps stable” value ([4]; 60° C./75% RH and 80° C.) was “at least 2 weeks” and the “Solid form after storage” value ([4]; 60° C./75% RH, 2 weeks) was “Form A”. The “Solid form after storage” value ([4]; 80° C., 2 weeks) was “Form A”.
